Experimental data taken from patent US8309138B2, “Pharmaceutical composition comprising microparticle oily suspension” (ASKA Pharmaceutical Co., Ltd., priority 2007, dated 2012).

Assay: Solubility of the compound of formula (i)
Type: physicochemical
Experimental: Solubility of this compound is 1.09 μg/mL in Solution 1 (pH 1.2) defined in the Japanese Pharmacopoeia at 37° C., 0.88 μg/mL in Solution 2 (pH 6.8) defined in the Japanese Pharmacopoeia at 37° C., 0.53 μg/mL in a phosphate buffer (pH 7.2) at 37° C., and about 2 mg/mL in Panasate at room temperature.

With O=C(Cc1c(F)cccc1Cl)Nc1onc(-c2ccc(F)cc2)c1-c1ccncn1 [formula (i)] the solubility (Solution 1 defined in the Japanese Pharmacopoeia, simulated gastric fluid, Solution 1 (pH 1.2) defined in the Japanese Pharmacopoeia at 37° C.) was 1.09 µg/mL, the solubility (Solution 2 defined in the Japanese Pharmacopoeia, aqueous buffer, Solution 2 (pH 6.8) defined in the Japanese Pharmacopoeia at 37° C.) was 0.88 µg/mL and the solubility (aqueous buffer, phosphate buffer (pH 7.2) at 37° C.) was 0.53 µg/mL. The solubility (oil or lipid, in Panasate at room temperature) was roughly 2000 µg/mL.
